Test results as given in patent US10501518B2 (priority 2013, dated 2019).
Starred links: 1 amine or outer side, 2 acyl side, 3 side chain; linkers in the order of their positions; H or OH if unused. Non-standard residues stand in square brackets, D forms with d. Residues, ends and D or L forms follow the SMILES beside them. *: point of attachment. NH(1S,2S-2-CONH2-cPent) = NC(=O)[C@H]1CCC[C@@H]1N*; β3hW = N[C@H](CC(=O)O)Cc1c[nH]c2ccccc12; X12 = O=C([C@H]1CCC[C@@H]1N[*:1])[*:2]; X13 = O=C([C@H]1CNC[C@@H]1N[*:1])[*:2]; ACPC(1S,2S) = N[C@H]1CCC[C@@H]1C(=O)*; hArg = N=C(N)NCCCC[C@H](N)C(=O)O; β3hE = N[C@@H](CCC(=O)O)CC(=O)O; β3hF = N[C@H](CC(=O)O)Cc1ccccc1; X14 = O=C(C1CCCC1N[*:1])[*:2]; β3hK = NCCCC[C@H](N)CC(=O)O; β3hM = CSCC[C@H](N)CC(=O)O; β3hD = NC(CC(=O)O)CC(=O)O; β3hS = N[C@@H](CO)CC(=O)O; Aib = CC(C)(N)C(=O)O

Target: T1, PTHR (Homo sapiens, UniProt Q03431)
T1 construct: expressed in transfected cells
T1 sequence (Q03431 27-593): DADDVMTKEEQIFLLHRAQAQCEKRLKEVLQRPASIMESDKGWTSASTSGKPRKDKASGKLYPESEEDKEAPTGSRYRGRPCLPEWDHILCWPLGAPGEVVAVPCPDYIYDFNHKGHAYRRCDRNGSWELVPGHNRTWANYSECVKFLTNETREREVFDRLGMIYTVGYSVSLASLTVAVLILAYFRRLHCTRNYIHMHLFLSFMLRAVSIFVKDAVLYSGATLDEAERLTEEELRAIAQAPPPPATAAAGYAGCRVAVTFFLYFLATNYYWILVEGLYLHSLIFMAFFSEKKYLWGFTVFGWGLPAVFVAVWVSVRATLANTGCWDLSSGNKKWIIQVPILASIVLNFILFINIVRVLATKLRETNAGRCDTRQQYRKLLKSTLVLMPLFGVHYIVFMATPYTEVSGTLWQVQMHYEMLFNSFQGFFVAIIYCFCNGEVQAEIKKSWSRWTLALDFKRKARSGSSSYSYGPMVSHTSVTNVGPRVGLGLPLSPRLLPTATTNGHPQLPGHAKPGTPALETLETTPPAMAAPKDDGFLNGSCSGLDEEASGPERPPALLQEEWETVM
Assay: cAMP induction potency, N-terminal modifications and cyclic constraints (Tables 9, 10, 13)
Type: cell-based
Method: For cAMP dose-response assays, monolayers of confluent HEK 293 cells were pre-incubated with buffer containing d-luciferin (0.5 mM) in 96 well plates at room temperature until a stable baseline level of luminescence was established (30 min). Varying concentrations of agonist were then added, and the time course of luminescence response was recorded using a Perkin Elmer plate reader following α/β-peptide addition.

Row | Fold PTH (Table 9) | Fold PTH (Table 10) | also measured | SMILES
1 | 266 | – | – | CSCC[C@H](NC(=O)[C@H]1CCC[C@@H]1NC(=O)[C@H](CCC(N)=O)NC(=O)[C@H]1CCC[C@@H]1NC(=O)[C@H](CCC(=O)O)NC(=O)[C@H](CO)NC(=O)[C@@H](NC(=O)[C@H]1CCC[C@@H]1N)C(C)C)C(=O)N[C@@H](Cc1c[nH]cn1)C(=O)N[C@@H](CC(N)=O)C(=O)N[C@@H](CC(C)C)C(=O)NCC(=O)N[C@@H](CCCCN)C(=O)N[C@H]1CCC[C@@H]1C(=O)N[C@@H](CC(C)C)C(=O)N[C@@H](CC(N)=O)C(=O)N[C@@H](CO)C(=O)N[C@H]1CCC[C@@H]1C(=O)N[C@@H](CCC(=O)O)C(=O)N[C@@H](CCCNC(=N)N)C(=O)N[C@H](C(=O)N[C@@H](CCC(=O)O)CC(=O)N[C@@H](Cc1c[nH]c2ccccc12)C(=O)N[C@@H](CC(C)C)C(=O)N[C@@H](CCCNC(=N)N)C(=O)N[C@H]1CNC[C@@H]1C(=O)N[C@@H](CCCCN)C(=O)N[C@@H](CC(C)C)C(=O)N[C@@H](CCC(N)=O)C(=O)N[C@@H](CC(=O)O)CC(=O)N[C@H](C(=O)N[C@@H](Cc1c[nH]cn1)C(=O)N[C@@H](CC(N)=O)C(=O)N[C@H]1CCC[C@@H]1C(N)=O)C(C)C)C(C)C [CycD6_ACPC(1,5,7), XVSEXQXMHNLGKXLNSXERVEWLRZKLQDVHNX-NH2] ({ACPC(1S,2S)}-VSE[X12]Q[X12]MHNLGK[X12]LNS[X12]ERV[β3hE]WLR[X13]KLQ[β3hD]VHN-{NH(1S,2S-2-CONH2-cPent)}; N-terminus assumed)
2 | 7.3 | – | – | CC[C@H](C)[C@H](NC(=O)[C@H](CCC(=O)O)NC(=O)[C@H](CO)NC(=O)[C@@H](NC(=O)[C@H]1CCC[C@@H]1N)C(C)C)C(=O)N[C@@H](CCC(N)=O)C(=O)N[C@H]1CCC[C@@H]1C(=O)N[C@@H](CCSC)C(=O)N[C@@H](Cc1c[nH]cn1)C(=O)N[C@@H](CC(N)=O)C(=O)N[C@@H](CC(C)C)C(=O)NCC(=O)N[C@@H](CCCCN)C(=O)N[C@H]1CCC[C@@H]1C(=O)N[C@@H](CC(C)C)C(=O)N[C@@H](CC(N)=O)C(=O)N[C@@H](CO)C(=O)N[C@H]1CCC[C@@H]1C(=O)N[C@@H](CCC(=O)O)C(=O)N[C@@H](CCCNC(=N)N)C(=O)N[C@H](C(=O)N[C@@H](CCC(=O)O)CC(=O)N[C@@H](Cc1c[nH]c2ccccc12)C(=O)N[C@@H](CC(C)C)C(=O)N[C@@H](CCCNC(=N)N)C(=O)N[C@H]1CNC[C@@H]1C(=O)N[C@@H](CCCCN)C(=O)N[C@@H](CC(C)C)C(=O)N[C@@H](CCC(N)=O)C(=O)N[C@@H](CC(=O)O)CC(=O)N[C@H](C(=O)N[C@@H](Cc1c[nH]cn1)C(=O)N[C@@H](CC(N)=O)C(=O)N[C@H]1CCC[C@@H]1C(N)=O)C(C)C)C(C)C [CycD6_ACPC(1,7), XVSEIQXMHNLGKXLNSXERVEWLRZKLQDVHNX-NH2] ({ACPC(1S,2S)}-VSEIQ[X12]MHNLGK[X12]LNS[X12]ERV[β3hE]WLR[X13]KLQ[β3hD]VHN-{NH(1S,2S-2-CONH2-cPent)}; N-terminus assumed)
3 | 8.7 | – | – | CC[C@H](C)[C@H](NC(=O)[C@H](CCC(=O)O)NC(=O)[C@H](CO)NC(=O)[C@@H](NC(=O)[C@H]1CCC[C@@H]1N)C(C)C)C(=O)N[C@@H](CCC(N)=O)C(=O)N[C@H]1CCC[C@@H]1C(=O)N[C@@H](CCSC)C(=O)N[C@@H](Cc1c[nH]cn1)C(=O)N[C@@H](CC(N)=O)C(=O)N[C@@H](CC(C)C)C(=O)NCC(=O)N[C@@H](CCCCN)C(=O)N[C@H]1CCC[C@@H]1C(=O)N[C@@H](CC(C)C)C(=O)N[C@@H](CC(N)=O)C(=O)N[C@@H](CO)C(=O)N[C@H]1CCC[C@@H]1C(=O)N[C@@H](CCC(=O)O)C(=O)N[C@@H](CCCNC(=N)N)C(=O)N[C@H](C(=O)N[C@H]1CNC[C@@H]1C(=O)N[C@@H](Cc1c[nH]c2ccccc12)C(=O)N[C@@H](CC(C)C)C(=O)N[C@@H](CCCNC(=N)N)C(=O)N[C@H]1CNC[C@@H]1C(=O)N[C@@H](CCCCN)C(=O)N[C@@H](CC(C)C)C(=O)N[C@@H](CCC(N)=O)C(=O)N[C@H]1CCC[C@@H]1C(=O)N[C@H](C(=O)N[C@@H](Cc1c[nH]cn1)C(=O)N[C@@H](CC(N)=O)C(=O)N[C@H]1CCC[C@@H]1C(N)=O)C(C)C)C(C)C [FcycD6_ACPC(1,7), XVSEIQXMHNLGKXLNSXERVZWLRZKLQXVHNX-NH2] ({ACPC(1S,2S)}-VSEIQ[X12]MHNLGK[X12]LNS[X12]ERV[X13]WLR[X13]KLQ[X12]VHN-{NH(1S,2S-2-CONH2-cPent)}; N-terminus assumed)
4 | – | – | EC50 (Table 13, non M-PTH analogs, read-out: cAMP, EC50 nM ± SEM): 0.79 nM | CSCC[C@H](NC(=O)[C@H]1CCC[C@@H]1NC(=O)[C@H](CCC(N)=O)NC(=O)[C@H]1CCC[C@@H]1NC(=O)[C@H](CCC(=O)O)NC(=O)[C@H](CO)NC(=O)[C@@H](NC(=O)C[C@@H](N)CO)C(C)C)C(=O)N[C@@H](Cc1c[nH]cn1)C(=O)N[C@@H](CC(N)=O)C(=O)N[C@@H](CC(C)C)C(=O)NCC(=O)N[C@@H](CCCCN)C(=O)N[C@H]1CCC[C@@H]1C(=O)N[C@@H](CC(C)C)C(=O)N[C@@H](CC(N)=O)C(=O)N[C@@H](CO)C(=O)N[C@H]1CCC[C@@H]1C(=O)N[C@@H](CCC(=O)O)C(=O)N[C@@H](CCCNC(=N)N)C(=O)N[C@H](C(=O)N[C@H]1CNC[C@@H]1C(=O)N[C@@H](Cc1c[nH]c2ccccc12)C(=O)N[C@@H](CC(C)C)C(=O)N[C@@H](CCCNC(=N)N)C(=O)N[C@H]1CNC[C@@H]1C(=O)N[C@@H](CCCCN)C(=O)N[C@@H](CC(C)C)C(=O)N[C@@H](CCC(N)=O)C(=O)N[C@H]1CCC[C@@H]1C(=O)N[C@H](C(=O)N[C@@H](Cc1c[nH]cn1)C(=O)N[C@@H](CC(N)=O)C(=O)N[C@H]1CCC[C@@H]1C(N)=O)C(C)C)C(C)C [FcycD6_β^3Ser1, ACPC(5, 7, SVSEXQXMHNLGKXLNSXERVZWLRZKLQXVHNX-NH2] (H-[β3hS]VSE[X12]Q[X12]MHNLGK[X12]LNS[X12]ERV[X13]WLR[X13]KLQ[X12]VHN-{NH(1S,2S-2-CONH2-cPent)}; N-terminus assumed)
5 | – | 5.4 | – | CC[C@H](C)[C@H](NC(=O)[C@H](CCC(=O)O)NC(=O)[C@H](C)NC(=O)[C@@H](NC(=O)[C@H](C)N)C(C)C)C(=O)N[C@@H](CCC(N)=O)C(=O)NC1CCCC1C(=O)N[C@@H](CCSC)C(=O)N[C@@H](Cc1c[nH]cn1)C(=O)N[C@@H](CCC(N)=O)C(=O)N[C@@H](CCCCNC(=N)N)C(=O)N[C@@H](C)C(=O)N[C@@H](CCCCN)C(=O)N[C@H](CC(=O)N[C@@H](CC(C)C)C(=O)N[C@@H](CC(N)=O)C(=O)N[C@@H](CO)C(=O)N[C@@H](CCSC)CC(=O)N[C@@H](CCCNC(=N)N)C(=O)N[C@@H](CCCNC(=N)N)C(=O)N[C@H](C(=O)N[C@@H](CCC(=O)O)CC(=O)N[C@@H](Cc1c[nH]c2ccccc12)C(=O)N[C@@H](CC(C)C)C(=O)N[C@@H](CCCNC(=N)N)C(=O)N[C@@H](CCCCN)CC(=O)N[C@@H](CCCCN)C(=O)N[C@@H](CC(C)C)C(=O)N[C@@H](CCC(N)=O)C(=O)N[C@@H](CC(=O)O)CC(=O)N[C@H](C(=O)N[C@@H](Cc1c[nH]cn1)C(=O)N[C@@H](CC(N)=O)C(=O)N[C@H](CC(N)=O)Cc1ccccc1)C(C)C)C(C)C)Cc1c[nH]c2ccccc12 (stereo partly drawn) [M-D6] (H-AVAEIQ[X14]MHQ[hArg]AK[β3hW]LNS[β3hM]RRV[β3hE]WLR[β3hK]KLQ[β3hD]VHN[β3hF]-NH2; N-terminus assumed)
6 | – | 21.8 | – | CC[C@H](C)[C@H](NC(=O)[C@H](CCC(=O)O)NC(=O)C(C)(C)NC(=O)[C@@H](NC(=O)[C@H]1CCC[C@@H]1N)C(C)C)C(=O)N[C@@H](CCC(N)=O)C(=O)N[C@H]1CCC[C@@H]1C(=O)N[C@@H](CCSC)C(=O)N[C@@H](Cc1c[nH]cn1)C(=O)N[C@@H](CCC(N)=O)C(=O)N[C@@H](CCCCNC(=N)N)C(=O)N[C@@H](C)C(=O)N[C@@H](CCCCN)C(=O)N[C@H]1CCC[C@@H]1C(=O)N[C@@H](CC(C)C)C(=O)N[C@@H](CC(N)=O)C(=O)N[C@@H](CO)C(=O)N[C@H]1CCC[C@@H]1C(=O)N[C@@H](CCCNC(=N)N)C(=O)N[C@@H](CCCNC(=N)N)C(=O)N[C@H](C(=O)N[C@H]1CNC[C@@H]1C(=O)N[C@@H](Cc1c[nH]c2ccccc12)C(=O)N[C@@H](CC(C)C)C(=O)N[C@@H](CCCNC(=N)N)C(=O)N[C@H]1CNC[C@@H]1C(=O)N[C@@H](CCCCN)C(=O)N[C@@H](CC(C)C)C(=O)N[C@@H](CCC(N)=O)C(=O)N[C@H]1CCC[C@@H]1C(=O)N[C@H](C(=O)N[C@@H](Cc1c[nH]cn1)C(=O)N[C@@H](CC(N)=O)C(=O)N[C@H]1CCC[C@@H]1C(N)=O)C(C)C)C(C)C [M-FcycD6_ACPC(1,7), XVUEIQXMHQ^hRAKXLNSXRRVZWLRZKLQXVHNX-NH2] ({ACPC(1S,2S)}-V[Aib]EIQ[X12]MHQ[hArg]AK[X12]LNS[X12]RRV[X13]WLR[X13]KLQ[X12]VHN-{NH(1S,2S-2-CONH2-cPent)}; N-terminus assumed)
